Literature values in article PMC4132888 (Biopolymers, 2014).
Where no end group is shown, it is not given here. [ ]: non-standard residue; d: D form.

Tests used:
[1] = molecular target: T1, rat μ opioid receptor (MOR) (Rattus norvegicus, UniProt P33535); conditions: previously reported; ref [13]
[2] = molecular target: T2, rat δ opioid receptor (DOR) (Rattus norvegicus, UniProt P33533); conditions: previously reported; ref [13]
[3] = molecular target: T1, rat μ opioid receptor (MOR); conditions: previously reported; ref [13]; remark: listed apart in the source
[4] = molecular target: T2, rat δ opioid receptor (DOR); conditions: previously reported; ref [13]; remark: listed apart in the source
MOR = conditions: read-out: Binding MOR; ref [33]
DOR = conditions: read-out: Binding DOR; ref [33]

T1 sequence (P33535 whole entry): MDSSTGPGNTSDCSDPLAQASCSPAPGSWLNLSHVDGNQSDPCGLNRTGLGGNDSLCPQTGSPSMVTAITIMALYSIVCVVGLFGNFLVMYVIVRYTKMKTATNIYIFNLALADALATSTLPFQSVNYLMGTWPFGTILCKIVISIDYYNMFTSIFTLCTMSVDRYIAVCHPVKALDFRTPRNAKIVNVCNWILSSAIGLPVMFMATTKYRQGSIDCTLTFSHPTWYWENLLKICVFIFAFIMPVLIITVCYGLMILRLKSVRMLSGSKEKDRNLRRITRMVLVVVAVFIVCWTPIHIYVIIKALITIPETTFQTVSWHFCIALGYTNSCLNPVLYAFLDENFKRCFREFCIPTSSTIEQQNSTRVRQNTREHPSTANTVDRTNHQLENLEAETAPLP
T2 sequence (P33533 whole entry): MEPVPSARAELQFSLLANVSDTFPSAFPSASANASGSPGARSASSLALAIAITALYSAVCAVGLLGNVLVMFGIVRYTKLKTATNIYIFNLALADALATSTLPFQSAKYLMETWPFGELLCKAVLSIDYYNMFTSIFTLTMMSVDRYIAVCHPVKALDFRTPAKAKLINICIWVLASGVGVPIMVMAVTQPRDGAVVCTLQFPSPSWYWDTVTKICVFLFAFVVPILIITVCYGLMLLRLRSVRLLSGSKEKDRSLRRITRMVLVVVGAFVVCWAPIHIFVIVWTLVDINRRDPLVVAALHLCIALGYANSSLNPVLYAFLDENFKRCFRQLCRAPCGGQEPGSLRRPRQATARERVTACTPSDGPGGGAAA

Dmt-c(S-Et-S)[DCys-Aic-DPen]OH [KSK-103]
Binding for MOR (in words) [1]: low nanomolar binding | Binding for DOR (in words) [2]: low nanomolar binding | Agonist activity at MOR (in words) [3]: moderate agonist activity | Stimulation of DOR (in words) [4]: no stimulation

Tyr-DThr-Gly-Phe-Leu-Ser-(O-β-D-lactose)-NH2 [MMP-2200]
KOR affinity (in words) (KOR; ref Polt and co-workers): high KOR affinity

Y[dT]GFLS-NH2 [DTLES]
Ki (MOR): 1.4 ± 0.08 nM | Ki (DOR): 4.1 ± 0.41 nM | Ki (KOR; read-out: Binding KOR, ref [33]): 34 ± 2.2 nM
